Assay results as given in ChEMBL document CHEMBL1142978, “Probing the anticancer activity of nucleoside analogues: a QSAR model approach using an internally consistent training set” (J Med Chem, 2007).

Experiment: Cytotoxicity against mouse L1210/0 cells after 48 hrs
Format: cell-based

SMILES | IC50 (Mus musculus, L1210/0, 48 h) | IC50 (l1210/0)
O=C(CI)NCc1cn([C@H]2C[C@H](O)[C@@H](CO)O2)c(=O)[nH]c1=O | 107 µM | –
Nc1nc2c(ncn2CCOCP(=O)(O)O)c(=O)[nH]1 [GS-438] | 0.57 µM | –
CC(=O)OC(C)Cn1cnc2c(Cl)nc(N)nc21 (centres undefined) | > 200 µM | –
O=c1ccn([C@@H]2C[C@H](CO)C[C@@H]2CO)c(=O)[nH]1 | > 200 µM | –
Nc1nc(Cl)c2nnn(C[C@H]3CC[C@@H](CO)C3)c2n1 | 170 µM | –
Nc1ncnc2c1ncn2[C@@H]1O[C@H](/C=C/F)[C@H](O)[C@@H]1O | > 200 µM | –
CCC#Cc1cn([C@@H]2O[C@H](CO)[C@@H](O)[C@@H]2O)c(=O)[nH]c1=O | > 200 µM | –
[N-]=[N+]=NCc1cn([C@H]2C[C@H](O)[C@@H](CO)O2)c(=O)[nH]c1=O | 124 µM | –
CC(O)Cn1cnc2c(N)nc(I)nc21 (centres undefined) | > 200 µM | –
Nc1ncnc2c1ncn2[C@@H]1O[C@H](/C=N/O)[C@@H](O)[C@H]1O (stereo in doubt; 82) | – | 37.5 µM
CC1(C)[C@@H](CO)CC[C@@]1(C)Cn1cnc2c(Cl)ncnc21 | 42.8 µM | –
CC1(C)[C@@H](CO)CC[C@@]1(C)Cn1ccc(=O)[nH]c1=O | > 200 µM | –
Cc1ccc(C(=O)/C=C/c2cc(O)nc(O)n2)cc1 | 182 µM | –
CO[C@@H]1OC[C@@H](OC(C)=O)[C@@H](OC(C)=O)[C@]1(F)n1ccc(=O)[nH]c1=O | 55 µM | –
O=C1O/C(=C\Cn2ccc(=O)[nH]c2=O)C(Cc2ccccc2)=C1O | > 200 µM | –
CC#Cc1cn([C@H]2C[C@H](O)[C@@H](CO)O2)c(=O)[nH]c1=O | > 200 µM | –
CC(=O)OC(C)Cn1cnc2c(N)nc(I)nc21 (centres undefined) | > 200 µM | –
OC[C@H]1C[C@@H](Cn2cnc3c(NC4CC4)ncnc32)c2ccccc21 | > 200 µM | –
CC(O)Cn1cnc2c(F)nc(N)nc21 (centres undefined) | > 200 µM | –
CC1=C(c2cn([C@H]3C[C@H](O)[C@@H](CO)O3)c(=O)[nH]c2=O)C(=O)c2ccccc2C1=O | 68.8 µM | –
COc1nc(I)nc2c1ncn2COCCO | > 200 µM | –
Nc1ncnc2c1ncn2[C@H]1C[C@@H](O)[C@@H](C=O)O1 | 26.6 µM | –
Nc1nc2c(nc(O)n2COCCO)c(=O)[nH]1 | > 200 µM | –
Cc1cn([C@@H]2O[C@H](CO)[C@@H](O)[C@@H]2O)c(=O)[nH]c1=O | 24.4 µM | –
O=c1ccn([C@@H]2O[C@H](CO)[C@H](F)[C@@H]2O)c(=O)[nH]1 | > 200 µM | –

SMILES | IC50 (Mus musculus, L1210/0, 48 h) | IC50 (l1210/0)
Nc1ncnc2c1ncn2C[C@@H]1CCC[C@H]1CO | > 200 µM | –
CNc1nc2c(=O)[nH]c(N)nc2n1COCCO | > 200 µM | –
O=C1NCN([C@@H]2O[C@H](COP3OCCC(O)O3)[C@@H](O)C2=O)C=C1F (some centres undefined) | 0.84 µM | –
Nc1nc(=O)n(COCCO)cc1[N+](=O)[O-] | > 200 µM | –
CC(O)Cn1cnc2c(S)nc(F)nc21 (centres undefined) | > 200 µM | –
CC1(C)[C@H](CCO)C[C@@H]1n1cnc2c(Cl)nc(N)nc21 | 105 µM | –
COC1=C(OC)/C(=C/Cn2cnc3c(Cl)ncnc32)OC1=O | 14 µM | –
O=c1[nH]c(=O)n([C@H]2C[C@H](O)[C@@H](CO)O2)cc1C#CCCO | > 200 µM | –
Nc1nc2c(nc(Br)n2COCCO)c(=O)[nH]1 | > 200 µM | –
COC1=C(OC)/C(=C/C(n2cnc3c(N)ncnc32)P(O)(=S)OC)OC1=O (centres undefined) | > 200 µM | –
Nc1nc2c(nc(Cl)n2COCCO)c(=O)[nH]1 | > 200 µM | –
C[C@H](O)C1CC(Cn2cnc3c(=O)[nH]cnc32)C1(C)C (some centres undefined) | > 200 µM | –
CCC#Cc1cn([C@H]2C[C@H](O)[C@@H](CO)O2)c(=O)[nH]c1=O | > 200 µM | –
O=C1OC(C(O)Cn2cc(C(F)(F)F)c(=O)[nH]c2=O)C(OCc2ccccc2)=C1OCc1ccccc1 (centres undefined) | 50.1 µM | –
C[C@H](O)C1CC(Cn2cnc3c(N)ncnc32)C1(C)C (some centres undefined) | > 200 µM | –
Cc1cn(C[C@@H]2C[C@H](CO)c3ccccc32)c(=O)[nH]c1=O | > 200 µM | –
O=c1[nH]c(=O)n([C@H]2C[C@H](O)[C@@H](CO)O2)cc1/C=C/Br [BRIVUDINE] | 80.8 µM | –
OC[C@@H]1[C@@H]2COC[C@H]2C[C@H]1n1cnc2c(Cl)ncnc21 | > 200 µM | –
CC(=O)OCCOCn1cnc2c(Cl)ncnc21 | 163 µM | –
O=c1[nH]c(=O)n(COCCO)cc1[N+](=O)[O-] | > 200 µM | –
OC[C@@H]1CCC[C@@H]1Cn1cnc2c(Cl)ncnc21 | 52.5 µM | –
COC1=C(OC)/C(=C/CP(=O)(OC)OC)OC1=O | > 200 µM | –
CC1(C)[C@@H](CO)CC[C@@]1(C)Cn1nnc2c(=O)[nH]cnc21 | > 200 µM | –
Cc1cn(COCCO)c(=O)[nH]c1=O | > 200 µM | –
Cc1ccc(S(=O)(=O)OCCC#Cc2cn([C@H]3C[C@H](O)[C@@H](CO)O3)c(=O)[nH]c2=O)cc1 | > 200 µM | –

SMILES | IC50 (Mus musculus, L1210/0, 48 h) | IC50 (l1210/0)
Nc1ncnc2c1ncn2[C@@H]1O[C@H](CO)[C@H](F)[C@@H]1O | 5.94 µM | –
O=c1[nH]c(=O)n(C2C[C@@H](CO)[C@@H](CO)C2)cc1I (some centres undefined) | > 200 µM | –
CS(=O)(=O)Cc1cn([C@H]2C[C@H](O)[C@@H](CO)O2)c(=O)[nH]c1=O | > 200 µM | –
Nc1ncnc2c1ncn2[C@@H]1CCC[C@H]1CO | > 200 µM | –
CCO/N=C\C1OC(n2cnc3c(N)ncnc32)C(O)C1O (centres undefined) | > 200 µM | –
Nc1ccn(C[C@@H]2C[C@H](CO)c3ccccc32)c(=O)n1 | > 200 µM | –
Nc1ncnc2c1ncn2[C@@H]1O[C@H](C=O)C(O)C1O (single isomer, unassigned) | 36.6 µM | –
CC(=O)OCCOCn1cnc2c(Cl)nc(Cl)nc21 | 39.3 µM | –
Nc1ncnc2c1nnn2C[C@H]1CCC[C@H]1CO | > 200 µM | –
COCC#Cc1cn([C@H]2C[C@H](O)[C@@H](CO)O2)c(=O)[nH]c1=O | > 200 µM | –
C[S+]([O-])c1cn([C@H]2C[C@H](O)[C@@H](CO)O2)c(=O)[nH]c1=O (some centres undefined) | > 200 µM | –
CC(=O)OC(C)Cn1cnc2c(Cl)nc(I)nc21 (centres undefined) | 13 µM | –
CC1(C)C(CO)CC1Cn1cnc2c(N)nc(N)nc21 (centres undefined) | > 200 µM | –
O=c1[nH]cnc2c1nnn2C1C[C@H](CO)[C@@H](CO)[C@@H]1CO (some centres undefined) | > 200 µM | –
Nc1ccn([C@@H]2O[C@H](CO)[C@H](F)[C@@H]2O)c(=O)n1 | 159 µM | –
OC[C@@H]1CC(n2cnc3c(NC4CC4)ncnc32)C[C@@H]1CO (some centres undefined) | > 200 µM | –
CSc1cn([C@H]2C[C@H](O)[C@@H](CO)O2)c(=O)[nH]c1=O | > 200 µM | –
O=c1[nH]c(=O)n([C@H]2C[C@H](O)[C@@H](CO)O2)cc1/C=C/I | 63.9 µM | –
O=C(/C=C/c1cc(=O)[nH]c(=O)n1COCCO)c1ccccc1 | 43.3 µM | –
COc1ccc(-c2ncnc3c2ncn3C[C@@H]2C[C@H](CO)c3ccccc32)cc1 | 17.6 µM | –
CO/N=C/C1CC(n2cnc3c(N)ncnc32)C(O)C1O (centres undefined) | > 200 µM | –
C[C@@]1(CO)O[C@H](c2ccc(N)cc2F)C[C@@H]1O | > 200 µM | –
Nc1nc(Cl)c2nnn([C@H]3CCCC[C@H]3CO)c2n1 | 95.5 µM | –
O=C1O/C(=C/Cn2cnc3ncnc(Cl)c32)C(OCc2ccccc2)=C1OCc1ccccc1 | 4.1 µM | –
Nc1nc(O)c2ncn([C@H]3CCCC[C@H]3CO)c2n1 | > 200 µM | –

SMILES | IC50 (Mus musculus, L1210/0, 48 h) | IC50 (l1210/0)
C[C@H](O)C1CC(CCn2nnc3c(N)ncnc32)C1(C)C (some centres undefined) | > 200 µM | –
OC[C@@H]1C[C@H](Cn2cnc3c(Cl)ncnc32)c2c(-c3ccccc3)nnc(-c3ccccc3)c21 | > 200 µM | –
Nc1nc2c(nc(I)n2COCCO)c(=O)[nH]1 | 111 µM | –
CC(C)(C)C#Cc1cn([C@@H]2O[C@H](CO)[C@@H](O)[C@@H]2O)c(=O)[nH]c1=O | > 200 µM | –
Nc1ncnc2c1ncn2[C@@H]1O[C@H](/C=C\Br)[C@H](O)[C@@H]1O | 104 µM | –
CC(=O)OCCOCn1cnc2c(Cl)nc(N)nc21 | > 200 µM | –
Nc1ncnc2c1ncn2C[C@@H]1C[C@H](O)c2ccccc21 | > 200 µM | –
O=c1[nH]c(=O)n(C[C@@H]2C[C@H](O)c3ccccc32)cc1Br | > 200 µM | –
OC[C@@H]1CCC[C@H]1Cn1cnc2c(O)ncnc21 | > 200 µM | –
O=C1O/C(=C\Cn2cc(I)c(=O)[nH]c2=O)C(OCc2ccccc2)=C1OCc1ccccc1 | 7.5 µM | –
CC1(C)[C@@H](Cn2cnc3c(N)nc(N)nc32)CC[C@@]1(C)CO | > 200 µM | –
O=c1[nH]c(=O)n([C@H]2C[C@H](O)[C@@H](CO)O2)cc1[N+](=O)[O-] | 0.13 µM | –
C[C@H](O)C1CC(CCn2cnc3c(=O)[nH]cnc32)C1(C)C (some centres undefined) | > 200 µM | –
CC1(C)[C@@H](CCCO)C[C@H]1n1nnc2c(N)nc(N)nc21 | > 200 µM | –
Nc1ncnc2c1ncn2C[C@@H]1C[C@H](CO)c2ccccc21 | > 200 µM | –
OC[C@H]1C[C@@H](Cn2cnc3c(O)ncnc32)c2ccccc21 | > 200 µM | –
O=c1[nH]c(=O)n(COCCO)cc1/C=C/Br | > 200 µM | –
C=C(Br)[C@H]1O[C@@H](n2cnc3c(N)ncnc32)[C@@H](O)[C@H]1O | 25 µM | –
Nc1nc(N)c2ncn([C@H]3CCCC[C@H]3CO)c2n1 | > 200 µM | –
Nc1ncnc2c1ncn2C1CC(O)C(/C=N/O)O1 (centres undefined) | 17.4 µM | –
Nc1nc(O)c2nnn([C@H]3CCCC[C@H]3CO)c2n1 | > 200 µM | –
COc1ccccc1-c1ncnc2c1ncn2C[C@@H]1C[C@H](O)c2ccccc21 | > 200 µM | –
Nc1nc(=O)ccn1COCCO | > 200 µM | –
Nc1ccn(COCCO)c(=O)n1 | > 200 µM | –
